Tested on: patients with non-ST elevation ACS
Assay: MERLIN-TIMI 36 trial: randomized, double-blind, placebo-controlled; effect of ranolazine stratified by baseline BNP
Assay type: in vivo, human
Details: ranolazine vs placebo
Description: Ranolazine is believed to exert anti-ischemic effects through a reduction in myocardial cellular sodium and calcium overload with a consequent reduction in wall stress. B-type natriuretic peptide (BNP) is released in response to increased wall stress and is a potent indicator of risk in acute coronary syndromes (ACS). This study was a prospective evaluation of the interaction between BNP and the effect of ranolazine as part of a randomized, double-blind, placebo-controlled trial.
Plasma BNP were measured (ADVIA® BNP) at baseline (N=4543), 14 days (N=4079), and the Final Visit (N=3328) of the patients with non-ST elevation ACS randomized to ranolazine or placebo in the MERLIN-TIMI 36 trial. Patients were stratified using BNP>80 pg/mL based upon prior work with this assay. The primary endpoint of the trial was a composite of cardiovascular death, myocardial infarction, or recurrent ischemia (CVD/Ml/Rl).

COc1ccccc1OCC(O)CN1CCN(CC(=O)Nc2c(C)cccc2C)CC1 (racemic) [ranolazine, (±)-N-(2,6-dimethylphenyl)-4-[2-hydroxy-3-(2-methoxyphenoxy)propyl]-1-piperazine-acetamide]
endpoint component of worsening angina, HR (BNP>80 pg/mL, CI 0.35-0.84, p=0.005): 0.55 | endpoint component of worsening angina, HR (BNP≦80 pg/mL, 95% CI 0.63-1.28, p=0.55): 0.90 | primary endpoint (composite of cardiovascular death, myocardial infarction, or recurrent ischemia), HR (patients with BNP>80 pg/mL, 95% CI 0.66-0.94, p=0.009): 0.79 | primary endpoint (composite of cardiovascular death, myocardial infarction, or recurrent ischemia), effect (patients with a negative BNP result, p-interaction=0.052): lack of detectable effect
